Tested on: HBV
Assay: HepAD38 antiviral assay: reduction of viral product accumulation (virion DNA by qPCR, HBsAg or HBeAg by ELISA)
Format: cell-based, hepatitis B virus
Details: Hepatitis B virus, HePAD38, 120 h, HepAD38 cells, five days after compound addition; concentration reducing viral product accumulation by 50% relative to no drug controls; read-out: HepAD38 EC50
Method: Methods: HepAD38 cells are maintained as previously reported (Ladner et al, Antimicrob. Agents Chemother. 1997, […], 1715). Briefly, cells are passaged upon attaining confluency in DMEM/F12 media in the presence of 10% FBS, Penn/Strep, 250 μg/mL G418, and 1 ug/ml tetracycline. Novel compounds are screened by first washing cells three times with PBS to remove tetracycline, and plating in 96 well plates at 35,000 cells/well. Compounds dissolved in DMSO are then diluted 1:200 into wells containing cells. Five days after compound addition, material is harvested for analysis. For an extended 8 day analysis, cells are plated and treated as described above, but media and compound are refreshed on d2 and d5 post initial treatment.
On harvest day, virion DNA is obtained by lysing with Sidestep Lysis and Stabilization Buffer and then quantified via quantitative real time PCR. Commercially available ELISA kits are used to quantitate the viral proteins HBsAg (Alpco) or HbeAg (US Biological) by following the manufacturer's recommended protocol after diluting samples to match the linear range of their respective assays. Irrespective of readout, compound concentrations that reduce viral product accumulation in the cell lysates or supernatants by 50% relative to no drug controls (EC50) are reported; EC50 ranges are as follows: A<0.1 μM; B 0.1-0.4 μM; C>0.4 μM.

Structure (SMILES)	EC50 [nM]
O=C(Nc1cc(F)c(F)c(F)c1)c1ccc(Cl)c(S(=O)(=O)[C@@H]2CCC[C@H](O)C2)c1 (racemic) [Example 58]	> 400
O=C(Nc1cc(F)c(F)c(F)c1)c1ccc(Cl)c(S(=O)(=O)C2CCC3(CC2)OCCO3)c1 [Example 1]	100 to 400
O=C1CCC(S(=O)(=O)c2cc(C(=O)Nc3cc(F)c(F)c(F)c3)ccc2Cl)CC1 [Example 2]	100 to 400
C[C@H](NC(=O)OC(C)(C)C)C(=O)O[C@H]1CC[C@H](S(=O)(=O)c2cc(C(=O)Nc3cc(F)c(F)c(F)c3)ccc2Cl)CC1 [Example 5]	100 to 400
C[C@H](N)C(=O)O[C@H]1CC[C@H](S(=O)(=O)c2cc(C(=O)Nc3cc(F)c(F)c(F)c3)ccc2Cl)CC1 [Example 6]	100 to 400
O=C(Nc1cc(F)c(F)c(F)c1)c1ccc(Cl)c(S[C@H]2CC[C@H](O)CC2)c1 [Example 10]	100 to 400
O=C(Nc1cc(F)c(F)c(F)c1)c1ccc(Cl)c(SC2CCCCC2)c1 [Example 11]	> 400
O=C(Nc1cc(F)c(F)c(F)c1)c1ccc(Cl)c(S(=O)(=O)C2CCCCC2)c1 [Example 12]	100 to 400
CCCSc1cc(C(=O)Nc2cc(F)c(F)c(F)c2)ccc1Cl [Example 13]	> 400
COc1cc(C(=O)Nc2cc(F)c(F)c(F)c2)ccc1Cl [Example 14]	> 400
CCCS(=O)(=O)c1cc(C(=O)Nc2cc(F)c(F)c(F)c2)ccc1Cl [Example 15]	100 to 400
Cc1c(NC(=O)c2ccc(Cl)c(S(=O)(=O)[C@]3(C)CC[C@H](O)CC3)c2)cc(F)c(F)c1F [Example 18]	100 to 400
Cc1c(NC(=O)c2ccc(Cl)c(S(=O)(=O)[C@]3(C)CC[C@@H](O)CC3)c2)cc(F)c(F)c1F [Example 19]	> 400
O=C(Nc1cc(F)c(F)c(F)c1)c1ccc(Cl)c(S(=O)(=O)C2CC=CCC2)c1 (centres unmarked) [Example 20]	100 to 400
O=C(Nc1cc(F)c(F)c(F)c1)c1ccc(Cl)c(S(=O)(=O)[C@H]2CC[C@H](F)CC2)c1 [Example 21]	100 to 400
C[C@]1(O)CC[C@@H](S(=O)(=O)c2cc(C(=O)Nc3cc(F)c(F)c(F)c3)ccc2Cl)CC1 [Example 22]	100 to 400
C[C@]1(O)CC[C@H](S(=O)(=O)c2cc(C(=O)Nc3cc(F)c(F)c(F)c3)ccc2Cl)CC1 [Example 23]	100 to 400
O=C(Nc1ccnc(Cl)c1)c1ccc(Cl)c(S(=O)(=O)[C@H]2CC[C@H](O)CC2)c1 [Example 24]	> 400
O=C(Nc1cc(F)c(F)c(F)c1)c1ccc(Cl)c(O[C@H]2CC[C@H](O)CC2)c1 [Example 25]	> 400
COc1cc(NC(=O)c2ccc(Cl)c(S(=O)(=O)[C@H]3CC[C@H](O)CC3)c2)ccc1F [Example 26]	> 400
O=C(Nc1cc(F)c(F)c(F)c1)c1ccc(Cl)c(S(=O)(=O)Cc2ccccc2)c1 [Example 27]	> 400
O=C(Nc1cc(F)c(F)c(F)c1)c1ccc(Cl)c(SCC2CCCCC2)c1 [Example 28]	> 400
O=C1CCCC(S(=O)(=O)c2cc(C(=O)Nc3cc(F)c(F)c(F)c3)ccc2Cl)C1 (centres unmarked) [Example 29]	> 400

Structure (SMILES)	EC50 [nM]
O=C1CCCC(S(=O)(=O)c2cc(C(=O)Nc3cc(F)c(F)c(F)c3)ccc2Cl)CO1 (centres unmarked) [Example 30]	> 400
O=C(Nc1cc(F)c(F)c(F)c1)c1ccc(Cl)c(S(=O)(=O)[C@@H]2CC[C@H](O)C2)c1 [Example 31]	100 to 400
O=C(Nc1cc(F)c(F)c(F)c1)c1ccc(Cl)c(SCc2ccccn2)c1 [Example 32]	> 400
O=C1CC(S(=O)(=O)c2cc(C(=O)Nc3cc(F)c(F)c(F)c3)ccc2Cl)C1 [Example 33]	> 400
O=C(Nc1cc(F)c(F)c(F)c1)c1ccc(Cl)c(S(=O)(=O)[C@H]2C[C@@H](O)C2)c1 [Example 34]	> 400
O=C(Nc1cc(F)c(F)c(F)c1)c1ccc(Cl)c(SCc2cccnc2)c1 [Example 35]	> 400
O=C(Nc1cc(F)c(F)c(F)c1)c1ccc(Cl)c(S(=O)(=O)CC2CCCCC2)c1 [Example 36]	> 400
O=C(Nc1cc(F)c(F)c(F)c1)c1ccc(Cl)c(S(=O)(=O)Cc2cccc[n+]2[O-])c1 [Example 37]	> 400
O=C(Nc1cc(F)c(F)c(F)c1)c1ccc(Cl)c(SCc2ccncc2)c1 [Example 38]	> 400
C=C1CC2CCC(C1)C2Sc1cc(C(=O)Nc2cc(F)c(F)c(F)c2)ccc1Cl (centres unmarked) [Example 39]	> 400
COc1cc(NC(=O)c2ccc(Cl)c(S(=O)(=O)[C@H]3CC[C@H](O)CC3)c2)ccn1 [Example 40]	> 400
N#Cc1cc(NC(=O)c2ccc(Cl)c(S(=O)(=O)[C@H]3CC[C@H](O)CC3)c2)ccc1F [Example 41]	> 400
O=C(Nc1cc(F)c(F)cn1)c1ccc(Cl)c(S(=O)(=O)[C@H]2CC[C@H](O)CC2)c1 [Example 43]	> 400
O=C(Nc1cc(F)c(F)c(F)c1)c1ccc(Cl)c(S(=O)(=O)[C@H]2C3CCC2C[C@@H](O)C3)c1 [Example 44]	100 to 400
O=C(Nc1cc(F)c(F)c(F)c1)c1ccc(Cl)c([S+]([O-])Cc2ccncc2)c1 (centres unmarked) [Example 47]	> 400
C=C1CC2CCC(C1)C2S(=O)(=O)c1cc(C(=O)Nc2cc(F)c(F)c(F)c2)ccc1Cl (centres unmarked) [Example 49]	100 to 400
O=C(Nc1ccc(F)c(F)c1)c1ccc(Cl)c(S(=O)(=O)[C@H]2CC[C@H](O)CC2)c1 [Example 51]	100 to 400
O=C(Nc1ccc(F)c(Cl)c1)c1ccc(Cl)c(S(=O)(=O)[C@H]2CC[C@H](O)CC2)c1 [Example 52]	100 to 400
CS(=O)(=O)NC(=O)O[C@H]1CC[C@H](S(=O)(=O)c2cc(C(=O)Nc3cc(F)c(F)c(F)c3)ccc2Cl)CC1 [Example 53]	> 400
CC(C)(C)OC(=O)N[C@H]1CC[C@H](S(=O)(=O)c2cc(C(=O)Nc3cc(F)c(F)c(F)c3)ccc2Cl)CC1 [Example 54]	100 to 400
CC(C)(C)OC(=O)N[C@H]1CC[C@H]([S+]([O-])c2cc(C(=O)Nc3cc(F)c(F)c(F)c3)ccc2Cl)CC1 (some centres unmarked) [Example 55]	> 400
N#Cc1cc(NC(=O)c2ccc(Cl)c(S(=O)(=O)[C@H]3CC[C@H](O)CC3)c2)ccn1 [Example 56]	> 400
O=C1CCC(S(=O)(=O)c2cc(C(=O)Nc3cc(F)c(F)c(F)c3)ccc2Cl)C1 (centres unmarked) [Example 57]	> 400

Structure (SMILES)	EC50 [nM]
CC(C)(C)OC(=O)N1CCC(S(=O)(=O)c2cc(C(=O)Nc3cc(F)c(F)c(F)c3)ccc2Cl)CC1 [Example 59]	< 100
O=C(Nc1cc(F)c(F)c(F)c1)c1ccc(Cl)c(S[C@H]2CC[C@H](O)CC2)n1 [Example 61]	> 400
O=C(Nc1cc(F)c(F)c(F)c1)c1ccc(Cl)c(S(=O)(=O)[C@H]2CC[C@H](O)CC2)n1 [Example 62]	> 400
O=C(Nc1cc(F)c(F)c(F)c1)c1ccc(Cl)c(SC2CCC=CCC2)c1 [Example 63]	> 400
O=C(Nc1cc(F)c(F)c(F)c1)c1ccc(Cl)c([S+]([O-])C2CCC=CCC2)c1 (centres unmarked) [Example 64]	> 400
O=C(Nc1cccc(F)c1)c1ccc(Cl)c(S(=O)(=O)[C@H]2CC[C@H](O)CC2)c1 [Example 65]	> 400
O=C(Nc1ccc(F)cc1)c1ccc(Cl)c(S(=O)(=O)[C@H]2CC[C@H](O)CC2)c1 [Example 66]	> 400
O=C(Nc1cc(F)c(F)c(F)c1)c1ccc(Cl)c(SC2CCOCC2)c1 [Example 67]	> 400
O=C(Nc1cc(F)cc(F)c1)c1ccc(Cl)c(S(=O)(=O)[C@H]2CC[C@H](O)CC2)c1 [Example 68]	100 to 400
O=C(Nc1cc(F)c(F)c(F)c1)c1ccc(Cl)c(S(=O)(=O)C2CCOCC2)c1 [Example 69]	100 to 400
O=C(Nc1cc(F)c(F)c(F)c1)c1ccc(Cl)c(S(=O)(=O)C2CC[C@H](O)[C@H](O)C2)c1 (some centres unmarked) [Example 70]	100 to 400
O=C(Nc1cc(F)c(F)c(F)c1)c1ccc(Cl)c(Sc2ccccc2)c1 [Example 71]	> 400
N[C@H]1CC[C@H](S(=O)(=O)c2cc(C(=O)Nc3cc(F)c(F)c(F)c3)ccc2Cl)CC1 [Example 72]	> 400
CN(C)[C@H]1CC[C@H](S(=O)(=O)c2cc(C(=O)Nc3cc(F)c(F)c(F)c3)ccc2Cl)CC1 [Example 73]	> 400
O=C(Nc1cc(F)c(F)c(F)c1)c1ccc(Cl)c(S(=O)(=O)C2CCNCC2)c1 [Example 74]	> 400
CC(C)[C@H](N)C(=O)O[C@H]1CC[C@H](S(=O)(=O)c2cc(C(=O)Nc3cc(F)c(F)c(F)c3)ccc2Cl)CC1 [Example 75]	100 to 400
CC(C)[C@H](NC(=O)OC(C)(C)C)C(=O)O[C@H]1CC[C@H](S(=O)(=O)c2cc(C(=O)Nc3cc(F)c(F)c(F)c3)ccc2Cl)CC1 [Example 76]	100 to 400
CCOC(=O)CS(=O)(=O)c1cc(C(=O)Nc2cc(F)c(F)c(F)c2)ccc1Cl [Example 77]	> 400
O=C(Nc1cc(F)c(F)c(F)c1)c1ccc(Cl)c(S[C@@H]2C[C@H](O)C[C@H](O)C2)c1 [Example 78]	> 400
O=C(Nc1cc(F)c(F)c(F)c1)c1ccc(Cl)c(S(=O)(=O)[C@@H]2C[C@H](O)C[C@H](O)C2)c1 [Example 79]	> 400
C=CCC1(S(=O)(=O)c2cc(C(=O)Nc3cc(F)c(F)c(F)c3)ccc2Cl)CCCCC1 [Example 81]	> 400
O=C(Nc1cc(F)c(F)c(F)c1)c1ccc(Cl)c(S(=O)(=O)c2ccccc2)c1 [Example 82]	> 400
